Experiments:
[1] = test system: Macrophage; assay: Inhibition of cholesterol ester synthesis in mouse macrophages assessed as lipid droplet accumulation; assay type: functional, cell-based
[2] = molecular target: T1, Sterol O-acyltransferase 1 (Mus musculus) (UniProt Q61263); assay: Inhibition of ACAT in mouse liver microsomes at 20 uM; details: Microsome
T1 sequence (whole entry): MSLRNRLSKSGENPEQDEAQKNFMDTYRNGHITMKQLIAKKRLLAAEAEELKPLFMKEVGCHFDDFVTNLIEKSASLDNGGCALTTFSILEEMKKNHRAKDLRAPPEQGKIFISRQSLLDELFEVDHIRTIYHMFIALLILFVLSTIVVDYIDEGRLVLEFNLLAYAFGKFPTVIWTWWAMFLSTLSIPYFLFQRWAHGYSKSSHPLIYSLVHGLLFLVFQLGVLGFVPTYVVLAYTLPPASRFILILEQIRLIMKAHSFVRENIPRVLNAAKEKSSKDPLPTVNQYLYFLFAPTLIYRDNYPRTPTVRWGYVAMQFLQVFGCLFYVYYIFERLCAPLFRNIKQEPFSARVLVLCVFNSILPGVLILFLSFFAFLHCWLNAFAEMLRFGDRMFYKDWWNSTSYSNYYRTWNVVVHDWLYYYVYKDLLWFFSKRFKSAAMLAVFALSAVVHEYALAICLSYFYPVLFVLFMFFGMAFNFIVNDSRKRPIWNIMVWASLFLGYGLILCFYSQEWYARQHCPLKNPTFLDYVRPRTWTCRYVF

IC50 [1]	inhibition [2]	SMILES
0.08 µM	83%	CCCC[C@H](C)[C@@H]1CC(=O)N[C@@H](C(c2ccccc2)c2ccccc2)C(=O)N[C@@H](C)C(=O)N[C@H](CC(C)C)C(=O)O1
10 µM	94%	CCCC[C@H](C)[C@@H]1CC(=O)N[C@@H](Cc2ccccc2)C(=O)N[C@H](C)C(=O)N[C@H](Cc2ccccc2)C(=O)O1
> 20 µM	20%	CCCC[C@H](C)[C@@H]1CC(=O)N[C@H](Cc2ccccc2)C(=O)N[C@@H](C)C(=O)N[C@H]([C@@H](C)CC)C(=O)O1
> 20 µM	43%	CCCC[C@H](C)[C@@H]1CC(=O)N[C@@H](Cc2ccccc2)C(=O)N[C@@H](CC(N)=O)C(=O)N[C@H](CC(C)C)C(=O)O1
1 µM	96%	CCCC[C@H](C)[C@@H]1CC(=O)N[C@H](Cc2ccccc2)C(=O)N[C@H](C)C(=O)N[C@H](CC(C)C)C(=O)O1
0.08 µM	71%	CCCC[C@H](C)[C@@H]1CC(=O)N[C@@H](C(c2ccccc2)c2ccccc2)C(=O)N[C@@H](C)C(=O)N[C@H](Cc2ccccc2)C(=O)O1
> 20 µM	87%	CCCC[C@H](C)[C@@H]1CC(=O)N[C@H](Cc2ccccc2)C(=O)N[C@@H](C)C(=O)N[C@H](CC(C)C)C(=O)O1
0.4 µM	91%	CCCC[C@H](C)[C@@H]1CC(=O)N[C@@H](Cc2ccccc2)C(=O)N[C@@H](C)C(=O)N[C@H]([C@@H](C)CC)C(=O)O1 [BEAUVERIOLIDE III]
12.3 µM	93%	CCCC[C@H](C)[C@@H]1CC(=O)N[C@@H](Cc2ccccc2)C(=O)N[C@@H](CO)C(=O)N[C@H](CC(C)C)C(=O)O1
7.5 µM	76%	CCCC[C@H](C)[C@@H]1CC(=O)N[C@@H](Cc2ccccc2)C(=O)N[C@@H](C)C(=O)N[C@H](Cc2ccccc2)C(=O)O1
1.7 µM	80%	CCCC[C@H](C)[C@@H]1CC(=O)N[C@@H](Cc2ccccc2)C(=O)N[C@@H](C)C(=O)N[C@H]([C@H](C)CC)C(=O)O1
0.8 µM	94%	CCCC[C@H](C)[C@@H]1CC(=O)N[C@@H](Cc2ccccc2)C(=O)N[C@H](C)C(=O)N[C@H]([C@@H](C)CC)C(=O)O1
> 20 µM		CCCC[C@H](C)[C@@H]1CC(=O)N[C@H](Cc2ccccc2)C(=O)N[C@@H](CC(N)=O)C(=O)N[C@H](C[C@@H](C)CC)C(=O)O1
9.3 µM	79%	CCCC[C@H](C)[C@@H]1CC(=O)N[C@@H](Cc2ccccc2)C(=O)N[C@@H](CO)C(=O)N[C@H](Cc2ccccc2)C(=O)O1
0.16 µM	96%	CCCC[C@H](C)[C@@H]1CC(=O)N[C@@H](C(c2ccccc2)c2ccccc2)C(=O)N[C@@H](CO)C(=O)N[C@H](Cc2ccccc2)C(=O)O1
0.65 µM	96%	CCCC[C@H](C)[C@@H]1CC(=O)N[C@@H](Cc2ccccc2)C(=O)N[C@H](C)C(=O)N[C@H]([C@H](C)CC)C(=O)O1
0.6 µM	95%	CCCC[C@H](C)[C@@H]1CC(=O)N[C@@H](Cc2ccccc2)C(=O)N[C@@H](C)C(=O)N[C@H](CC(C)C)C(=O)O1 [BEAUVERIOLIDE I]
0.24 µM	75%	CCCC[C@H](C)[C@@H]1CC(=O)N[C@@H](C(c2ccccc2)c2ccccc2)C(=O)N[C@H](C)C(=O)N[C@H](Cc2ccccc2)C(=O)O1
2.5 µM	91%	CCCC[C@H](C)[C@@H]1CC(=O)N[C@H](Cc2ccccc2)C(=O)N[C@H](C)C(=O)N[C@H]([C@H](C)CC)C(=O)O1

IC50 [1]	inhibition [2]	SMILES
> 20 µM	70%	CCCC[C@H](C)[C@@H]1CC(=O)N[C@H](Cc2ccccc2)C(=O)N[C@@H](C)C(=O)N[C@H]([C@H](C)CC)C(=O)O1
> 20 µM	40%	CCCC[C@H](C)[C@@H]1CC(=O)N[C@H](Cc2ccccc2)C(=O)N[C@@H](CO)C(=O)N[C@H](CC(C)C)C(=O)O1
2 µM	98%	CCCC[C@H](C)[C@@H]1CC(=O)N[C@@H](C(c2ccccc2)c2ccccc2)C(=O)N[C@@H](CC(N)=O)C(=O)N[C@H](CC(C)C)C(=O)O1
> 20 µM	70%	CCCC[C@H](C)[C@@H]1CC(=O)N[C@@H](C(c2ccccc2)c2ccccc2)C(=O)N[C@@H](CO)C(=O)N[C@H](CC(C)C)C(=O)O1
> 20 µM	47%	CCCC[C@H](C)[C@@H]1CC(=O)N[C@H](Cc2ccccc2)C(=O)N[C@@H](C)C(=O)N[C@H](Cc2ccccc2)C(=O)O1
0.04 µM	95%	CCCC[C@H](C)[C@@H]1CC(=O)N[C@@H](C(c2ccccc2)c2ccccc2)C(=O)N[C@@H](C)C(=O)N[C@H]([C@@H](C)CC)C(=O)O1
0.9 µM	97%	CCCC[C@H](C)[C@@H]1CC(=O)N[C@@H](C(c2ccccc2)c2ccccc2)C(=O)N[C@@H](CC(N)=O)C(=O)N[C@H](Cc2ccccc2)C(=O)O1
0.07 µM	93%	CCCC[C@H](C)[C@@H]1CC(=O)N[C@@H](C(c2ccccc2)c2ccccc2)C(=O)N[C@H](C)C(=O)N[C@H](CC(C)C)C(=O)O1
> 20 µM	4%	CCCC[C@H](C)[C@@H]1CC(=O)N[C@H](Cc2ccccc2)C(=O)N[C@@H](CC(N)=O)C(=O)N[C@H](CC(C)C)C(=O)O1
0.11 µM	95%	CCCC[C@H](C)[C@@H]1CC(=O)N[C@H](Cc2ccccc2)C(=O)N[C@@H](CO)C(=O)N[C@H](Cc2ccccc2)C(=O)O1
> 20 µM	8%	CCCC[C@H](C)[C@@H]1CC(=O)N[C@H](Cc2ccccc2)C(=O)N[C@@H](CC(N)=O)C(=O)N[C@H](Cc2ccccc2)C(=O)O1
0.02 µM	91%	CCCC[C@H](C)[C@@H]1CC(=O)N[C@@H](C(c2ccccc2)c2ccccc2)C(=O)N[C@H](C)C(=O)N[C@H]([C@@H](C)CC)C(=O)O1
0.3 µM	60%	CCCC[C@H](C)[C@@H]1CC(=O)N[C@H](Cc2ccccc2)C(=O)N[C@H](C)C(=O)N[C@H](Cc2ccccc2)C(=O)O1
0.9 µM	99%	CCCC[C@H](C)[C@@H]1CC(=O)N[C@H](Cc2ccccc2)C(=O)N[C@H](C)C(=O)N[C@H]([C@@H](C)CC)C(=O)O1
> 20 µM	11%	CCCC[C@H](C)[C@@H]1CC(=O)N[C@@H](Cc2ccccc2)C(=O)N[C@@H](CC(N)=O)C(=O)N[C@H](Cc2ccccc2)C(=O)O1
0.02 µM	97%	CCCC[C@H](C)[C@@H]1CC(=O)N[C@@H](C(c2ccccc2)c2ccccc2)C(=O)N[C@H](C)C(=O)N[C@H]([C@H](C)CC)C(=O)O1
0.02 µM	88%	CCCC[C@H](C)[C@@H]1CC(=O)N[C@@H](C(c2ccccc2)c2ccccc2)C(=O)N[C@@H](C)C(=O)N[C@H]([C@H](C)CC)C(=O)O1
0.48 µM	98%	CCCC[C@H](C)[C@@H]1CC(=O)N[C@@H](Cc2ccccc2)C(=O)N[C@H](C)C(=O)N[C@H](CC(C)C)C(=O)O1

Reference: ChEMBL document CHEMBL1155850, “Synthesis and biological evaluation of a focused library of beauveriolides” (Bioorg Med Chem Lett, 2008)
